Here are results for one compound from patent US10195243B2, “Process of making wine from a whole grape bunch, process of making pomace juice and powder, and method of producing beverages on the basis of juice and powder from a grape bunch” (priority 2014, dated 2019).

The assay relates to Molt-4-luc leukemia. The note with it: positive control group.

Procedure: The objective was to evaluate the anti-tumor efficacy of different compounds in leukemia model in Balb/c nude mice.
Female Balb/c nude mice, with a body weight of approximately 20 grams, were obtained from an approved vendor (Shanghai BK Laboratory Animal Co., LTD., Shanghai, China). Upon arrival, animals were assessed as to their general health by a member of a veterinary staff or authorized personnel. Animals were acclimated for at least three days (upon arrival at the experiment room) before being used for the study. Animals were housed in groups during acclimation and individually housed during in-life. […] Temperature and relative humidity were monitored daily. […]
The tumor cells were routinely subcultured twice weekly. The cells growing in an exponential growth phase were harvested and counted for tumor inoculation. […]
Mice were randomly assigned to 16 groups (vehicle control, positive control, and 14 testing article groups) based on the body weight. […] Whole body and metastatic bioluminescence were measured and recorded.
The inoculated mice were weighted and intraperitoneally injected luciferin at 150 mg/kg. […] The bioluminescence of the whole animal body, including primary and metastatic tumors, was measured and images are recorded.
Bioluminescence (BL) of the whole animal body, including primary and metastatic tumors, was measured and images were recorded using a fixed intensity scale. […]

For the compound `O=P1(N(CCCl)CCCl)NCCCO1` (centres unmarked) [Cyclophosphamide], the “outcome until day 150” value is reported as “died”. Further, the mice died entry (day 111 after cell injection, the mouse showed bioluminescence signal) is on record as “one”.
